Where a chain is given by its changes, count along the chain named.
Assays:
IL1R-I29C = target: T1, IL1R-I29C (Homo sapiens, UniProt P14778); assay: SPR ranking of reversible covalent (disulfide) bond formation with immobilized protein-thiolate (Examples 5-6); assay type: binding; settings: disulfide compound 100 μM, reductant 500 μM; fraction of protein-thiolate on the chip covalently bound
T1 construct: soluble interleukin-1 receptor, type 1 having a mutation to cysteine; made in house; host or cells: E. coli or baculovirus-infected insect cells (TN-5B1-4, High Five)
T1 sequence (P14778 18-336 E146C): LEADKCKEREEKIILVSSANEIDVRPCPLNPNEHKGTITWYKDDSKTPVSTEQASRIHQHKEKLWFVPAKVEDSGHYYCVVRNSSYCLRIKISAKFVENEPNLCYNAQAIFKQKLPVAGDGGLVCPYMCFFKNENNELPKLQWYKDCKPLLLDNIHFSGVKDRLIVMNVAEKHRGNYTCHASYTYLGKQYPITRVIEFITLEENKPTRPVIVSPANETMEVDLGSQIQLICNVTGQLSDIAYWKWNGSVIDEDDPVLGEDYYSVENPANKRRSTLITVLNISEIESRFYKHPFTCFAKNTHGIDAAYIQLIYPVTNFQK
Procedure: (§1) A CM5 sensor chip (Biacore-BR-1000-14) is docked in a Biacore 2000 SPR device, and the chip is normalized using a standard Biacore protocol with 70% glycerol. The chip is equilibrated in PBS for approximately 1 hr at a 20 μL/min flow rate. The dextran surface of the chip is activated through an NHS/EDC coupling. This is done using an amine coupling kit (Biacore—BR-100-50) containing N-hydroxysuccinimide (NHS 11.5 mg/mL) and N-ethyl-N′-(3-dimethylaminopropyl) carbodiimide hydrochloride (EDC 75 mg/mL). The two reagents are mixed in a 1:1 ratio and then 35 μL of the mixture are injected at 5 μL/min. The chip is activated one flow cell at a time, and that flow cell is subsequently labeled with protein.
(§2) Protein having at least one cysteine is expressed in E. coli or baculovirus-infected insect cells (TN-5B1-4, High Five) and purified using standard procedures. This protein-thiolate is treated with 10 mM βME overnight to reduce the surface cysteine. The βME is removed and the protein-thiolate is placed in 100 mM MES Buffer pH 5.75 (Nap-5 column, Pierce). The protein-thiolate is then concentrated to 100 μM using a Millipore-UFV5BCCOO 5K NMWL membrane, 0.5 mL centrifugal filter and tube.
(§3) A sensorgram is then run over the activated flow cell at 2 μL/min of PBS. The protein-thiolate solution is then injected at 2 μL/min for 10 min. After injection one measures the change in RUs by marking the RUs at t=0 and t final and subtracting them. This subtraction gives the total RU change that is related to the total mass of protein successfully coupled to the CM5 surface. This value will later be used to determine stoichiometry of binding. This procedure is then repeated with various cysteine mutants that are immobilized on the adjacent cells. The sensorgram is then altered to flow across all 4 cells on the CM5 chip at 5,L/min PBS. A solution of 1 M ethanolamine hydrochloride-NaOH pH 8.5 (Amine coupling kit, Biacore—BR-100-50) is injected at 5 μL/min for 7 min. The chip is equilibrated overnight in 100 mM Tris pH 8+0.05% azide+1% DMSO at 20 μL/min.
(§4) Compounds are synthesized with a reactive disulfide linker (see, for example compound 2t in Example 2). From previous “tethering” experiments compounds that preferentially bind and form a covalent bond with specific cysteine mutants at the active sites of proteins are chosen for these SPR experiments. The compounds are known to form this covalent attachment at relatively high levels of reductant [βME (2-mercaptoethanol, Sigma)], indicating a […] noncovalent binding interaction.
(§5) Dilutions series of the compounds are typically performed to produce seven solutions with compound concentrations of 50 mM, 25 mM, 12.5 mM, 6.25 mM, 3.12 mM, 1.56 mM, and 0.78 mM in DMSO, with a final eighth point as a DMSO only baseline. The compounds are then diluted into 100 mM Tris pH 8+0.05% azide+500 μM βME, to final compound concentrations of 500 μM, 250 μM, 125 μM, 62.5 μM, 31.2 μM, 15.6 μM, and 7.8 μM. The compound solutions are injected from lowest concentration to highest at 2 μL/min for 20 min. The SPR software method includes a 1 min wash before injection, the injection and then a 10 min wash after the injection. This particular protocol employs a regeneration step to reduce off the compound that is covalently bound before the next injection. The regeneration is accomplished by injecting 10 mM βME at 2 μL/min for 20 min.
(§6) These dilution series are analyzed by BIAevaluation software version 3.0. Sensorgrams are plotted for compound binding to cells of the chip labeled with protein-thiolate. The sensorgrams are modified by subtracting the sensorgrams for the appropriate compound dilutions over cell 1 (a blank cell). This subtraction step removes any RU changes that might occur due to nonspecific interactions between the compound and the chip itself or refractive changes in the buffer. Finally, the eight sensorgrams produced from the compound dilution series are zeroed at the average of their starting RUs. […]

IL1R-I13C = target: T2, IL1R-I13C (Homo sapiens, UniProt P14778, I30C); assay: as above; assay type: binding; settings: disulfide compound 100 μM, reductant 500 μM; fraction of protein-thiolate on the chip covalently bound
T2 construct: soluble interleukin-1 receptor, type 1 having a mutation to cysteine; made in house; host or cells: E. coli or baculovirus-infected insect cells (TN-5B1-4, High Five)
T2 sequence (P14778 18-336 I30C): T1 sequence (P14778 18-336 E146C) with I13C, C129E
Procedure: as §1, §2, §3, §4, §5, §6

SMILES	Fraction bound IL1R-I29C (IL1R-I29C)	Fraction bound IL1R-I13C (IL1R-I13C)
CC(=O)c1ccccc1NC(=O)c1ccc(NC(=O)CSSCCN)cc1 [Compound 12t]	0.0	0.5
COC(=O)c1cccc(NC(=O)c2ccc(NC(=O)CSSCCN)cc2)c1 [Compound 13t]	0.0	0.0
NCCSSCCC(=O)NC(c1ccccc1)c1cc2ccccc2cn1 (centres unmarked) [Compound 14t]	0.6	0.0
COc1cc(C(=O)N2CCCC(C(=O)NCCSSCCN)C2)ccc1O (centres unmarked) [Compound 15t]	0.2	0.0

From US20030186464A1, “Surface plasmon resonance methods” (priority 2002, published 2003)
